Results as given in patent publication US7786299B2, “Methods for treating diseases or conditions using dihydropteridinone compounds” (Boehringer Ingelheim Pharma GmbH & Co. KG, priority 2003, dated 2010).

Legend:
[1] = tested on: H460-VINC; test: Cytotoxicity on H460-VINC cells (Table 1; method not given); assay type: cell-based; conditions: H460-VINC of Table 1; unit inferred
[2] = tested on: HeLaS3 cells; test: Measurement of cytotoxicity on cultivated human tumour cells (AlamarBlue); assay type: cell-based; conditions: HeLa in Table 1; unit inferred
Description: The activity of the compounds according to the invention was determined in the cytotoxicity test on cultivated human tumour cells and/or in a FACS analysis, for example on HeLaS3 cells.
Measurement of Cytotoxicity on Cultivated Human Tumour Cells
To measure the cytotoxicity on cultivated human tumour cells, cells of the cervical cancer tumour cell line HeLaS3 (obtained from American Type Culture Collection (ATCC)) in Ham's F12 Medium (Life Technologies) and 10% foetal calf serum (Life Technologies) were cultivated and harvested in the logarithmic growth phase. Then the HeLaS3 cells were placed in 96-well plates (Costar) at a density of 1000 cells per well and incubated overnight in an incubator (at 37° C. and 5% CO2), while on each plate 6 wells were filled only with medium (3 wells as a control of the medium, 3 wells for incubation with reduced AlamarBlue). The active substances were added to the cells in various concentrations (dissolved in DMSO; final concentration: 1%) (in each case as a triple measurement). After 72 hours' incubation, 20 μl of AlamarBlue (AccuMed International) were added to each well, and the cells were incubated for a further 7 hours. As a control, 20 μl of reduced Alamar Blue (AlamarBlue reagent which had been autoclaved for 30 min) were added to 3 wells. After 7 h incubation the colour change of the AlamarBlue reagent in the individual wells was determined in a Perkin Elmer fluorescence spectrophotometer (excitation 530 nm, emission 590 nm, slits 15, integrate time 0.1). The amount of AlamarBlue reagent reacted represents the metabolic activity of the cells. The relative cell activity was calculated as a percentage of the control (HeLa S3 cells without inhibitor) and the active substance concentration which inhibits the cell activity by 50% (IC^50) was obtained. The values were calculated from the average of three individual measurements, correcting for the control value (medium control).

Compound	IC50 [1] [nM]	IC50 [2] [nM]
CCC1C(=O)N(C)c2cnc(Nc3ccc(C(=O)NC4CCCN(C)CC4)cc3OC)nc2N1CCC(C)C (mixture of isomers) [Example 172]	772	20
COc1cc(C(=O)NC2CC(C)(C)N(C)C(C)(C)C2)ccc1Nc1ncc2c(n1)N(CCC(C)C)C(C)C(=O)N2C (stereo not drawn) [Example 1]	604	46
COc1cc(C(=O)NC2CCN(C(C)C)CC2)ccc1Nc1ncc2c(n1)N(CCC(C)C)C(C)C(=O)N2C (stereo not drawn) [Example 2]	971	56
CC(C)CCN1c2nc(Nc3ccc(C(=O)NC4CC(C)(C)N(C)C(C)(C)C4)cc3)ncc2N(C)C(=O)C1C (stereo not drawn) [Example 3]		61
CCN1CCC(NC(=O)c2ccc(Nc3ncc4c(n3)N(CCC(C)C)C(C)C(=O)N4C)cc2)CC1 (stereo not drawn) [Example 4]		98
COc1cc(C(=O)NC2CC(C)(C)N(C)C(C)(C)C2)ccc1Nc1ncc2c(n1)N(CC(C)(C)C)C(C)C(=O)N2C (stereo not drawn) [Example 5]	863	52
CCN1CCC(NC(=O)c2ccc(Nc3ncc4c(n3)N(CC(C)(C)C)C(C)C(=O)N4C)c(OC)c2)CC1 (stereo not drawn) [Example 6]	822	53
COc1cc(C(=O)NC2CCN(C(C)C)CC2)ccc1Nc1ncc2c(n1)N(CC(C)(C)C)C(C)C(=O)N2C (stereo not drawn) [Example 7]	865	84
CC1C(=O)N(C)c2cnc(Nc3ccc(C(=O)NC4CC(C)(C)N(C)C(C)(C)C4)cc3)nc2N1CC(C)(C)C (stereo not drawn) [Example 8]		63
COc1cc(C(=O)NC2CCC(N3CCOCC3)CC2)ccc1Nc1ncc2c(n1)N(CCC(C)C)C(C)C(=O)N2C (stereo not drawn) [Example 9]	207	57
CC1C(=O)N(C)c2cnc(Nc3ccc(C(=O)NC4CCN(Cc5ccccc5)CC4)cc3)nc2N1CC(C)(C)C (stereo not drawn) [Example 10]		91
CCN1CCC(NC(=O)c2ccc(Nc3ncc4c(n3)N(CC(C)(C)C)C(C)C(=O)N4C)cc2)CC1 (stereo not drawn) [Example 11]	1300	86
CC(C)N1CCC(NC(=O)c2ccc(Nc3ncc4c(n3)N(CC(C)(C)C)C(C)C(=O)N4C)cc2)CC1 (stereo not drawn) [Example 12]	1070	99
COc1cc(C(=O)NC2CCC(N(C)C)CC2)ccc1Nc1ncc2c(n1)N(C1CCCC1)C(C)C(=O)N2C (stereo not drawn) [Example 13]	1320	26
CC1C(=O)N(C)c2cnc(Nc3ccc(C(=O)NC4CCC(N(C)C)CC4)cc3)nc2N1C1CCCC1 (stereo not drawn) [Example 14]	≥ 3000	55
COc1cc(C(=O)NC2CCC(N3CCCC3)CC2)ccc1Nc1ncc2c(n1)N(C1CCCC1)C(C)C(=O)N2C (stereo not drawn) [Example 15]		20
COc1cc(C(=O)NC2CCC(N3CCCCC3)CC2)ccc1Nc1ncc2c(n1)N(C1CCCC1)C(C)C(=O)N2C (stereo not drawn) [Example 16]	483	17
CCN1CCC(NC(=O)c2ccc(Nc3ncc4c(n3)N(C3CCCC3)C(C)C(=O)N4C)c(OC)c2)CC1 (stereo not drawn) [Example 17]	730	24
CCN1CCC(NC(=O)c2ccc(Nc3ncc4c(n3)N(C3CCCC3)C(C)C(=O)N4C)cc2)CC1 (stereo not drawn) [Example 18]	1760	40
CCC1C(=O)N(C)c2cnc(Nc3ccc(C(=O)NC4CCC(N5CCCC5)CC4)cc3OC)nc2N1C1CCCC1 (stereo not drawn) [Example 19]	747	13

Compound	IC50 [1] [nM]	IC50 [2] [nM]
CCN1CCC(NC(=O)c2ccc(Nc3ncc4c(n3)N(C(C)C)C(C)C(=O)N4C)c(OC)c2)CC1 (stereo not drawn) [Example 20]	≥ 3000	83
CCC1C(=O)N(C)c2cnc(Nc3ccc(C(=O)NC4CC(C)(C)N(C)C(C)(C)C4)cc3OC)nc2N1C1CCCC1 (stereo not drawn) [Example 21]	488	9
CCC1C(=O)N(C)c2cnc(Nc3ccc(C(=O)NC4CCN(CC)CC4)cc3OC)nc2N1C1CCCC1 (stereo not drawn) [Example 22]	347	8
CCC1C(=O)N(C)c2cnc(Nc3ccc(C(=O)NC4CCC(N(C)C)CC4)cc3OC)nc2N1C1CCCC1 (stereo not drawn) [Example 23]	679	13
COc1cc(C(=O)NC2CCC(N3CCOCC3)CC2)ccc1Nc1ncc2c(n1)N(C1CCCC1)C(C)C(=O)N2C (stereo not drawn) [Example 24]	277	17
COc1cc(C(=O)NC2CCC(N3CCCCC3)CC2)ccc1Nc1ncc2c(n1)N(C1CCCC1)C(C)C(=O)N2C (stereo not drawn) [Example 25]		38
COc1cc(C(=O)N[C@H]2CC[C@H](N3CCCCC3)CC2)ccc1Nc1ncc2c(n1)N(CCC(C)C)[C@H](C)C(=O)N2C [Example 29]		49
COc1cc(C(=O)NC2CCC(N3CCCC3)CC2)ccc1Nc1ncc2c(n1)N(CCC(C)C)[C@H](C)C(=O)N2C (stereo partly drawn) [Example 34]		55
COc1cc(C(=O)N[C@H]2CC[C@H](N3CCCC3)CC2)ccc1Nc1ncc2c(n1)N(CCC(C)C)[C@H](C)C(=O)N2C [Example 35]		88
COc1cc(C(=O)NC2CCC(N3CCCC3)CC2)ccc1Nc1ncc2c(n1)N(C1CCCC1)[C@H](C)C(=O)N2C (stereo partly drawn) [Example 36]		21
CCN1CC[C@@H](NC(=O)c2ccc(Nc3ncc4c(n3)N(CCC(C)C)[C@H](C)C(=O)N4C)cc2)C1 [Example 39]		75
CCC1C(=O)N(C)c2cnc(Nc3ccc(C(=O)NC4CC5CCC(C4)N5C)cc3)nc2N1C1CCCC1 (stereo not drawn) [Example 47]		28
CCN(CC)CCNC(=O)c1ccc(Nc2ncc3c(n2)N(c2ccccc2)C(C)C(=O)N3C)c(OC)c1 (stereo not drawn) [Example 59]		95
CC1C(=O)N(C)c2cnc(Nc3ccc(C(=O)NCCN4CCCCC4)cc3)nc2N1C1CCCC1 (stereo not drawn) [Example 70]		92
CC[C@@H]1C(=O)N(C)c2cnc(Nc3ccc(C(=O)NCCN4CCCCC4)cc3OC)nc2N1C(C)C [Example 72]		50
CC[C@@H]1C(=O)N(C)c2cnc(Nc3ccc(C(=O)NCCN(CC)CC)cc3)nc2N1C(C)C [Example 73]		91
CC[C@@H]1C(=O)N(C)c2cnc(Nc3ccc(C(=O)NCCN(CC)CC)cc3OC)nc2N1C(C)C [Example 74]		43
CCN(CC)CCCNC(=O)c1ccc(Nc2ncc3c(n2)N(C2CCCC2)[C@H](C)C(=O)N3C)c(OC)c1 [Example 76]		68
C[C@@H]1C(=O)N(C)c2cnc(Nc3ccc(C(=O)NC4CCN(C)CC4)cc3)nc2N1C1CCCC1 [Example 79]		43
C[C@@H]1C(=O)N(C)c2cnc(Nc3ccc(C(=O)NC4CC5CCC(C4)N5C)cc3)nc2N1C1CCCCC1 (stereo partly drawn) [Example 92]		43

Compound	IC50 [1] [nM]	IC50 [2] [nM]
CN1CCC(NC(=O)c2ccc(Nc3ncc4c(n3)N(C3CCCC3)[C@H](C3CC3)C(=O)N4C)cc2)CC1 [Example 93]		60
Cc1cc(C(=O)NC2CC3CCC(C2)N3C)ccc1Nc1ncc2c(n1)N(C1CCCCC1)[C@H](C)C(=O)N2C (stereo partly drawn) [Example 95]		47
CCC1C(=O)N(C)c2cnc(Nc3ccc(C(=O)NCCN4CCCCC4)cc3OC)nc2N1CCC(C)C (stereo not drawn) [Example 148]		87
CCC1C(=O)N(C)c2cnc(Nc3ccc(C(=O)NCCN(CC)CC)cc3OC)nc2N1CCC(C)C (stereo not drawn) [Example 149]		85
CCC1C(=O)N(C)c2cnc(Nc3ccc(C(=O)NCCN4CCCCC4)cc3)nc2N1CCC(C)C (stereo not drawn) [Example 150]		43
CCC1C(=O)N(C)c2cnc(Nc3ccc(C(=O)NCCCN4CCOCC4)cc3OC)nc2N1CCC(C)C (stereo not drawn) [Example 151]		43
CC[C@@H]1C(=O)N(C)c2cnc(Nc3ccc(C(=O)NCCCN4CCOCC4)cc3OC)nc2N1CCC(C)C [Example 152]		81
CC[C@@H]1C(=O)N(C)c2cnc(Nc3ccc(C(=O)NCCCN4CCOCC4)cc3)nc2N1CCC(C)C [Example 154]		97
CC[C@@H]1C(=O)N(C)c2cnc(Nc3ccc(C(=O)NCCCN4CCOCC4)cc3)nc2N1CCC(C)C [Example 155]		79
CC[C@@H]1C(=O)N(C)c2cnc(Nc3ccc(C(=O)NCCCN4CCCC4)cc3OC)nc2N1CCC(C)C [Example 157]		51
CC[C@@H]1C(=O)N(C)c2cnc(Nc3ccc(C(=O)NCCN(C)C)cc3OC)nc2N1CCC(C)C [Example 159]		29
COc1cc(C(=O)NCCN(C(C)C)C(C)C)ccc1Nc1ncc2c(n1)N(CCC(C)C)C(C)(C)C(=O)N2C [Example 161]		81
CCC1C(=O)N(C)c2cnc(Nc3ccc(C(=O)NC4CN5CCC4CC5)cc3OC)nc2N1CCC(C)C (stereo not drawn) [Example 163]		71
COc1cc(C(=O)NC(C)(C)CN(C)C)ccc1Nc1ncc2c(n1)N(C1CCCC1)[C@H](C)C(=O)N2C [Example 175]	296	
CC[C@@H]1C(=O)N(C)c2cnc(Nc3ccc(C(=O)NC(C)(C)CN(C)C)cc3OC)nc2N1C(C)C [Example 176]	301	
CC[C@@H]1C(=O)N(C)c2cnc(Nc3ccc(C(=O)NC(C)(C)CN(C)C)cc3OC)nc2N1C1CCCC1 [Example 177]	82	
CCC1C(=O)N(C)c2cnc(Nc3ccc(C(=O)NC4CCN(Cc5ccccc5)CC4)cc3OC)nc2N1C1CCCCC1 (stereo not drawn) [Example 180]	147	
COc1cc(C(=O)NC2CCN(Cc3ccccc3)CC2)ccc1Nc1ncc2c(n1)N(C1CCOCC1)C(C)C(=O)N2C (stereo not drawn) [Example 181]	754	
